Measurements published in ChEMBL document CHEMBL3991601, “The target landscape of clinical kinase drugs” (Science, 2017).
The source made the active and inactive calls. Cut-off read from the data, not from the text of the source, for most assays here: actives have a measured Kd and inactives only a lower limit.

How the values were obtained:
[1] = biological target: Mitogen-activated protein kinase 8 (Homo sapiens, UniProt P45983)
[2] = biological target: Protein kinase C alpha type (Homo sapiens, UniProt P17252)
[3] = biological target: T1, DNA replication licensing factor MCM4 (Homo sapiens, UniProt P33991)
T1 sequence (P33991 whole entry): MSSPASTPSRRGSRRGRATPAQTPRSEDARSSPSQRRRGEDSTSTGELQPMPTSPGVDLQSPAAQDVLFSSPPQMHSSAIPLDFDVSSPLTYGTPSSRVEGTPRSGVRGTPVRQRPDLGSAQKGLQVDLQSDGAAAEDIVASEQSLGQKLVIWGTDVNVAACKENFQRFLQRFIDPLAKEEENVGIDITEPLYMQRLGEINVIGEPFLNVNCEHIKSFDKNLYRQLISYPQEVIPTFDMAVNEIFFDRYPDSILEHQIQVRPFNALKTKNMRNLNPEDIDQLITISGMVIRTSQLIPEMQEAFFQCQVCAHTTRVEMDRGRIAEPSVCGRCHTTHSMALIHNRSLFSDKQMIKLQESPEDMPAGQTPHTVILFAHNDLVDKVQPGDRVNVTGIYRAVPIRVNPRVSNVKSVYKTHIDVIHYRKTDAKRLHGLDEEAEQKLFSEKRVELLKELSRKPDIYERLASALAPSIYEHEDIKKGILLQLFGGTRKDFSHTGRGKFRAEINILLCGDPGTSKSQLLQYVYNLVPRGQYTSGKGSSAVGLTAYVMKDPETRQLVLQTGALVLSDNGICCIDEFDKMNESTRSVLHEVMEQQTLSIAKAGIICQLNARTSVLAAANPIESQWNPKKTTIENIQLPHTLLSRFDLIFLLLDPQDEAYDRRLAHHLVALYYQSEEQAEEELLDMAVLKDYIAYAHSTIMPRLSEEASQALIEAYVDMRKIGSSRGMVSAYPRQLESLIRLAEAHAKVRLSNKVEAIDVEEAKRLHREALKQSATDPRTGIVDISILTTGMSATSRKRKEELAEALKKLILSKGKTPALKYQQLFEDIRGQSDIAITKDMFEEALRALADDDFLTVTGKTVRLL

GTP-binding protein 4 = GTP-binding protein 4 (Homo sapiens, UniProt Q9BZE4)
[4] = biological target: Elongation factor Tu, mitochondrial (Homo sapiens, UniProt P49411)
[5] = biological target: Protein-tyrosine kinase 6 (Homo sapiens, UniProt Q13882)
Sequence of Protein-tyrosine kinase 6 (Q13882 whole entry, the tested form may be a part): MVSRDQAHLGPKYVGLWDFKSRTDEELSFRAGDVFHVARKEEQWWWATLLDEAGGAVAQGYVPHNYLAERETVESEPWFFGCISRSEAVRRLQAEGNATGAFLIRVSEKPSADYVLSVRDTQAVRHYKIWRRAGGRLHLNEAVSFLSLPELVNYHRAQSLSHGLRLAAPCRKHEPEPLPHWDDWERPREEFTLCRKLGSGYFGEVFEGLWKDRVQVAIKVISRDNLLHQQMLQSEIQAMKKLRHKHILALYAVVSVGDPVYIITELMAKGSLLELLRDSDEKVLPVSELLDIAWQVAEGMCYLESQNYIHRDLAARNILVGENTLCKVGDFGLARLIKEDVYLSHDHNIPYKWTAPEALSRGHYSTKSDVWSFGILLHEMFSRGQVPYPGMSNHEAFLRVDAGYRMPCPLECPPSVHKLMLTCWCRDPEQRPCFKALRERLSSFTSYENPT

[6] = biological target: Epithelial discoidin domain-containing receptor 1 (Homo sapiens, UniProt Q08345)
Sequence of Epithelial discoidin domain-containing receptor 1 (Q08345 whole entry, the tested form may be a part): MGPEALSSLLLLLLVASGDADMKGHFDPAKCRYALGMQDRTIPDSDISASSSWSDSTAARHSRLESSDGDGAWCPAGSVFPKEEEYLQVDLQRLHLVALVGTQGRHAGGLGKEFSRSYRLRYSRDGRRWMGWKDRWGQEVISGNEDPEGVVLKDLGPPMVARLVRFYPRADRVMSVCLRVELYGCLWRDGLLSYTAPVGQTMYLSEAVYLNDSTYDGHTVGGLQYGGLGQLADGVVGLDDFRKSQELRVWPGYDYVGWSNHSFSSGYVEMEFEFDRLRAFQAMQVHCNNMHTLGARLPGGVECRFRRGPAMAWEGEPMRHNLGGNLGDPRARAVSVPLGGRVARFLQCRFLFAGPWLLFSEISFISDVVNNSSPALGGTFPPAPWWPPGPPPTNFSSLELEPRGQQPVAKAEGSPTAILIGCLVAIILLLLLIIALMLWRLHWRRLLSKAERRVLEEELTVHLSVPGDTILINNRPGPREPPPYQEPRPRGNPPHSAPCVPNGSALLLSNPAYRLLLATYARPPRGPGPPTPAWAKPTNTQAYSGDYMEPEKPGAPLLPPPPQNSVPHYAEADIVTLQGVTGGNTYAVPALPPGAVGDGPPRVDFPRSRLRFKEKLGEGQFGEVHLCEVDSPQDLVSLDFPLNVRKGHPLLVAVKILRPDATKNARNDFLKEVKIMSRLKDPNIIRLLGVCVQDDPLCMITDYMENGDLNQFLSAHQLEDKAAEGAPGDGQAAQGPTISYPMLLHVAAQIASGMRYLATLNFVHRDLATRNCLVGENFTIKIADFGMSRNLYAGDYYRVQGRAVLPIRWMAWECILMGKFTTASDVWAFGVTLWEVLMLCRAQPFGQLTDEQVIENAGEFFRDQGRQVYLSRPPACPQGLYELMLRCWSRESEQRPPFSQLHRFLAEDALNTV

[7] = biological target: T2, Glycogen phosphorylase, brain form (Homo sapiens, UniProt P11216)
T2 sequence (P11216 whole entry): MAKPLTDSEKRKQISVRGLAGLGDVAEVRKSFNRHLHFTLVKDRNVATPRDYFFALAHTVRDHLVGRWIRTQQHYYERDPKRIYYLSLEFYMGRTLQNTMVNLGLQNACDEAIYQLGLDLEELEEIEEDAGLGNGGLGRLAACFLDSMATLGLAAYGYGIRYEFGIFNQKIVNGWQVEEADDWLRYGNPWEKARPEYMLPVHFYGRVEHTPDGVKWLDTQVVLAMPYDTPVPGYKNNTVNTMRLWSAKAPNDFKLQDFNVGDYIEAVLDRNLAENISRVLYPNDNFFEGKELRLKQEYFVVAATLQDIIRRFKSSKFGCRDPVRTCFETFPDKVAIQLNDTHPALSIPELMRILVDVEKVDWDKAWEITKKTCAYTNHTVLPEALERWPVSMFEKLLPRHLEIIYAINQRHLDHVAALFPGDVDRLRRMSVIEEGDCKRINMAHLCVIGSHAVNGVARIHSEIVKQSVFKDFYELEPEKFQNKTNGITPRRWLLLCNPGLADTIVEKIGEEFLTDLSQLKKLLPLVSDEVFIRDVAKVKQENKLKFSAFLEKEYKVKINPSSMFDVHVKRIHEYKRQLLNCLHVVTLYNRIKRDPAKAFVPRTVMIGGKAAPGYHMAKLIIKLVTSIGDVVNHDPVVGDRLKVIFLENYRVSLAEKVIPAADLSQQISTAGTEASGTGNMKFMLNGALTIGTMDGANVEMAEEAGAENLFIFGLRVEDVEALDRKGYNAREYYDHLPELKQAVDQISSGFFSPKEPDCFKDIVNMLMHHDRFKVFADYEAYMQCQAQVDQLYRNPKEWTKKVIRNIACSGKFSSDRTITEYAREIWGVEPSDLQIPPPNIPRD

[8] = biological target: Mitogen-activated protein kinase 9 (Homo sapiens, UniProt P45984)
Sequence of Mitogen-activated protein kinase 9 (P45984 whole entry): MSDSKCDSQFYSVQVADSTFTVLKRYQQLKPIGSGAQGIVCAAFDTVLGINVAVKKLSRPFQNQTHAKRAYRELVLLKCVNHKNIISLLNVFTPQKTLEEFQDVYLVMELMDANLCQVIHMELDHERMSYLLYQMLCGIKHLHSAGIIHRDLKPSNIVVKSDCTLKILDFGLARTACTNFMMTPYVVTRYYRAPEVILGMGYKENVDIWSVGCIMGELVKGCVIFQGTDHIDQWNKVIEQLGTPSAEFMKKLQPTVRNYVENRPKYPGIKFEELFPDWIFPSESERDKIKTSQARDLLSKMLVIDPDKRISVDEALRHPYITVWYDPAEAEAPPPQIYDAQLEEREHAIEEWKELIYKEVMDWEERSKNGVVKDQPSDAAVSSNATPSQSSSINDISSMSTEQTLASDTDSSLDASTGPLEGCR

[9] = biological target: Cyclin-dependent kinase 7 (Homo sapiens, UniProt P50613)
Sequence of Cyclin-dependent kinase 7 (P50613 whole entry, the tested form may be a part): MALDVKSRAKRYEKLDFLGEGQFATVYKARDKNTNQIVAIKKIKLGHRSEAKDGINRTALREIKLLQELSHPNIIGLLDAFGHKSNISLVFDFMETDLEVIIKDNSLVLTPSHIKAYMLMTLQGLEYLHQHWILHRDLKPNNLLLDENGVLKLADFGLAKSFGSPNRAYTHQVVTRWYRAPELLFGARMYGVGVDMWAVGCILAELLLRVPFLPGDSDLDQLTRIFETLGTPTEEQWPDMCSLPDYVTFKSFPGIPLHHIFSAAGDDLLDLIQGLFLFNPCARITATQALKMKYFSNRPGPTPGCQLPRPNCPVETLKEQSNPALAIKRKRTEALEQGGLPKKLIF

[10] = biological target: PAS domain-containing serine/threonine-protein kinase (Homo sapiens, UniProt Q96RG2)
Sequence of PAS domain-containing serine/threonine-protein kinase (Q96RG2 whole entry, the tested form may be a part): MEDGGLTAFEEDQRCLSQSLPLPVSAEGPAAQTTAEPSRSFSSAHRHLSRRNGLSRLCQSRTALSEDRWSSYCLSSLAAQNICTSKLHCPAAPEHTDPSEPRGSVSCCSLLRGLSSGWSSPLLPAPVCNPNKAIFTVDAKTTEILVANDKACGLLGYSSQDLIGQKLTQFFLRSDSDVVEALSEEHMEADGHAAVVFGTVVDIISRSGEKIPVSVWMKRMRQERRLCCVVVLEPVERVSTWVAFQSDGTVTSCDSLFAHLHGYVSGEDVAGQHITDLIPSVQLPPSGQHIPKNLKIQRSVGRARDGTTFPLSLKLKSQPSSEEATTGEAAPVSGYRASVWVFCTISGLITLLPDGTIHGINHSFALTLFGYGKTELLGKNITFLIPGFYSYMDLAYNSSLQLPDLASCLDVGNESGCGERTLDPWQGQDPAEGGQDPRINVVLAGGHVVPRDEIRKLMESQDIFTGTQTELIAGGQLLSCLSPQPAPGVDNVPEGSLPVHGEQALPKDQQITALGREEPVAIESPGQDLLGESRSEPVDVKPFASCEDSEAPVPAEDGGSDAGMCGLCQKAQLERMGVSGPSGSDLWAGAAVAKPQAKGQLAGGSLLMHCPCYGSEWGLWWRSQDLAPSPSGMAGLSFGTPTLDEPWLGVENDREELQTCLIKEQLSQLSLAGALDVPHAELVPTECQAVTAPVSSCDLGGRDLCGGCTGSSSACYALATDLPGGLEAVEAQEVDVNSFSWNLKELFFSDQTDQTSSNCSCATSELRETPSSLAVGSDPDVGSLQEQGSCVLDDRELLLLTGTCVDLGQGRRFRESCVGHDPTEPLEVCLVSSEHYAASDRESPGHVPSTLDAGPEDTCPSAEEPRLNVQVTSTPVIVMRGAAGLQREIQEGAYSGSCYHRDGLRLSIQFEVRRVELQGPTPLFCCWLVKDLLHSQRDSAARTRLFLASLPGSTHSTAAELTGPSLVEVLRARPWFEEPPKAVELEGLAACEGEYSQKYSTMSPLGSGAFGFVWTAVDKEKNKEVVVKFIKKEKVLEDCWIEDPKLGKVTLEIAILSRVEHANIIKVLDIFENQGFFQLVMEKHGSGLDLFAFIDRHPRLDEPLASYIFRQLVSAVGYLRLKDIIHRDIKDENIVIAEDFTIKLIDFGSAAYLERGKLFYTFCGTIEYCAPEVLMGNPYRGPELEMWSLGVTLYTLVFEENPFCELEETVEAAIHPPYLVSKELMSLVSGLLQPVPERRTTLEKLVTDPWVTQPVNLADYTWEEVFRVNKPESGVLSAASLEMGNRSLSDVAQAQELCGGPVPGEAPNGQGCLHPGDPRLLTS
Note: in the data inactive means no Kd found up to 30 µM.

Sequence of Mitogen-activated protein kinase 8 (P45983 whole entry): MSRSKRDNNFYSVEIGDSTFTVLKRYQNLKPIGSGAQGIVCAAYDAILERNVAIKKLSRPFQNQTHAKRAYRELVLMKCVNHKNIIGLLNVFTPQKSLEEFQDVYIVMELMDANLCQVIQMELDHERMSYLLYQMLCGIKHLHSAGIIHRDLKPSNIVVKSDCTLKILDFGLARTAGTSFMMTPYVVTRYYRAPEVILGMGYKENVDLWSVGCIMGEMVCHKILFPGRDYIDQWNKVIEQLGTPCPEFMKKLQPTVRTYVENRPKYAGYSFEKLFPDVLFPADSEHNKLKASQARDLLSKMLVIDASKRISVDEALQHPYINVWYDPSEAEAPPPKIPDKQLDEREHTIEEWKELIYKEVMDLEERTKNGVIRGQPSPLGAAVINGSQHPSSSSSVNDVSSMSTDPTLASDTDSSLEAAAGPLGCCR

C[C@@H](Oc1cc(C(=O)Nc2ccc(C(=O)N3CCN(C)CC3)cc2)nnc1N)c1c(Cl)ccc(F)c1Cl
Kd [1]: > 30 µM (inactive) | Kd [2]: > 30 µM (inactive) | Kd [3]: > 30 µM (inactive) | Kd (GTP-binding protein 4): > 30 µM (inactive) | Kd [4]: > 30 µM (inactive) | Kd [5]: > 30 µM (inactive) | Kd [6]: > 30 µM (inactive) | Kd [7]: > 30 µM (inactive) | Kd [8]: > 30 µM (inactive) | Kd [9]: > 30 µM (inactive)

C[C@H]1CNCCCN1S(=O)(=O)c1cccc2cncc(F)c12
Kd [1]: > 30 µM (inactive) | Kd [2]: > 30 µM (inactive) | Kd [3]: > 30 µM (inactive) | Kd [4]: > 30 µM (inactive) | Kd [5]: > 30 µM (inactive) | Kd [6]: > 30 µM (inactive) | Kd [7]: > 30 µM (inactive) | Kd [8]: > 30 µM (inactive) | Kd [9]: > 30 µM (inactive)

CC(=O)c1cnc2ccc(-c3cc(Cl)c(O)c(Cl)c3)nc2c1N[C@H]1CC[C@H](CN(C)C)CC1
Kd [10]: > 30 µM (inactive) | Kd [3]: > 30 µM (inactive) | Kd (GTP-binding protein 4): > 30 µM (inactive) | Kd [4]: > 30 µM (inactive) | Kd [5]: > 30 µM (inactive) | Kd [6]: 0.515 µM (active) | Kd [7]: > 30 µM (inactive) | Kd [8]: 0.364 µM (active)

CCNC(=O)C#Cc1ccc2c(c1)NC(=O)/C2=C(\Nc1ccc(CN(C)C)cc1)c1ccccc1
Kd [1]: > 30 µM (inactive) | Kd [2]: > 30 µM (inactive) | Kd [3]: > 30 µM (inactive) | Kd [4]: > 30 µM (inactive) | Kd [5]: > 30 µM (inactive) | Kd [6]: 0.469 µM (active) | Kd [7]: > 30 µM (inactive) | Kd [8]: > 30 µM (inactive) | Kd [9]: > 30 µM (inactive)

Nc1ncnc2c1c(-c1cccc(OCc3ccccc3)c1)cn2[C@H]1C[C@@H](CN2CCC2)C1 [AEW-541]
Kd [1]: > 30 µM (inactive) | Kd [2]: > 30 µM (inactive) | Kd [3]: > 30 µM (inactive) | Kd [4]: > 30 µM (inactive) | Kd [5]: 1.94 µM (active) | Kd [6]: > 30 µM (inactive) | Kd [7]: > 30 µM (inactive) | Kd [8]: > 30 µM (inactive) | Kd [9]: > 30 µM (inactive)

COc1cc(Nc2ncc3c(n2)-c2ccc(Cl)cc2C(c2c(F)cccc2OC)=NC3)ccc1C(=O)O [ALISERTIB]
Kd [10]: > 30 µM (inactive) | Kd [2]: > 30 µM (inactive) | Kd [3]: 0.629 µM | Kd (GTP-binding protein 4): > 30 µM (inactive) | Kd [4]: > 30 µM (inactive) | Kd [6]: > 30 µM (inactive) | Kd [7]: > 30 µM (inactive)

Cc1nc(NC(=O)N2CCC[C@H]2C(N)=O)sc1-c1ccnc(C(C)(C)C(F)(F)F)c1 [ALPELISIB]
Kd [1]: > 30 µM (inactive) | Kd [2]: > 30 µM (inactive) | Kd [3]: > 30 µM (inactive) | Kd (GTP-binding protein 4): > 30 µM (inactive) | Kd [4]: > 30 µM (inactive) | Kd [5]: > 30 µM (inactive) | Kd [6]: > 30 µM (inactive) | Kd [7]: > 30 µM (inactive) | Kd [8]: > 30 µM (inactive) | Kd [9]: > 30 µM (inactive)

C=CC(=O)Nc1cc2c(Nc3ccc(F)c(Cl)c3)ncnc2cc1C#CC(C)(C)N1CCN(C)CC1 [AV-412 FREE BASE]
Kd [1]: > 30 µM (inactive) | Kd [10]: > 30 µM (inactive) | Kd [2]: > 30 µM (inactive) | Kd [3]: > 30 µM (inactive) | Kd (GTP-binding protein 4): > 30 µM (inactive) | Kd [4]: > 30 µM (inactive) | Kd [5]: > 30 µM (inactive) | Kd [6]: > 30 µM (inactive) | Kd [7]: > 30 µM (inactive) | Kd [8]: > 30 µM (inactive) | Kd [9]: > 30 µM (inactive)

Cn1cnc2c(F)c(Nc3ccc(Br)cc3F)c(C(=O)NOCCO)cc21 [BINIMETINIB]
Kd [1]: > 30 µM (inactive) | Kd [10]: > 30 µM (inactive) | Kd [2]: > 30 µM (inactive) | Kd [3]: > 30 µM (inactive) | Kd (GTP-binding protein 4): > 30 µM (inactive) | Kd [4]: > 30 µM (inactive) | Kd [5]: > 30 µM (inactive) | Kd [6]: > 30 µM (inactive) | Kd [7]: > 30 µM (inactive) | Kd [8]: > 30 µM (inactive) | Kd [9]: > 30 µM (inactive)

CCn1c(C(=O)N(C2CC2)C2CC2)cc2c3c(ncn3C)c(Nc3cc(C)n(C)n3)nc21 [BMS-911543]
Kd [1]: > 30 µM (inactive) | Kd [2]: > 30 µM (inactive) | Kd [3]: > 30 µM (inactive) | Kd (GTP-binding protein 4): > 30 µM (inactive) | Kd [4]: > 30 µM (inactive) | Kd [5]: > 30 µM (inactive) | Kd [6]: > 30 µM (inactive) | Kd [7]: > 30 µM (inactive) | Kd [8]: > 30 µM (inactive) | Kd [9]: > 30 µM (inactive)

Cc1cc(Nc2ncc(Cl)c(Nc3ccccc3S(=O)(=O)C(C)C)n2)c(OC(C)C)cc1C1CCNCC1 [CERITINIB]
Kd [1]: > 30 µM (inactive) | Kd [2]: > 30 µM (inactive) | Kd [3]: > 30 µM (inactive) | Kd (GTP-binding protein 4): > 30 µM (inactive) | Kd [4]: > 30 µM (inactive) | Kd [5]: > 30 µM (inactive) | Kd [6]: > 30 µM (inactive) | Kd [7]: > 30 µM (inactive) | Kd [8]: > 30 µM (inactive) | Kd [9]: > 30 µM (inactive)

Cc1nc2cc(-n3ncc(C(=O)c4cc5ccccc5[nH]4)c3N)ccc2[nH]1 [FGFR INHIBITOR DEBIO 1347]
Kd [1]: > 30 µM (inactive) | Kd [2]: > 30 µM (inactive) | Kd [3]: > 30 µM (inactive) | Kd (GTP-binding protein 4): > 30 µM (inactive) | Kd [4]: > 30 µM (inactive) | Kd [5]: > 30 µM (inactive) | Kd [6]: > 30 µM (inactive) | Kd [8]: > 30 µM (inactive) | Kd [9]: > 30 µM (inactive)

Cc1cccc(-c2nn3c(c2-c2ccnc4ccc(C(N)=O)cc24)CCC3)n1 [GALUNISERTIB]
Kd [1]: > 30 µM (inactive) | Kd [10]: > 30 µM (inactive) | Kd [2]: > 30 µM (inactive) | Kd [3]: > 30 µM (inactive) | Kd (GTP-binding protein 4): > 30 µM (inactive) | Kd [4]: > 30 µM (inactive) | Kd [5]: > 30 µM (inactive) | Kd [6]: > 30 µM (inactive) | Kd [7]: > 30 µM (inactive) | Kd [8]: > 30 µM (inactive) | Kd [9]: > 30 µM (inactive)

CNC(=O)c1nn(C)c2c1C(C)(C)Cc1cnc(Nc3ccc(N4CCN(C)CC4)cc3)nc1-2 [MILCICLIB]
Kd [1]: > 30 µM (inactive) | Kd [10]: > 30 µM (inactive) | Kd [2]: > 30 µM (inactive) | Kd [3]: > 30 µM (inactive) | Kd [4]: > 30 µM (inactive) | Kd [5]: > 30 µM (inactive) | Kd [6]: 4.17 µM (active) | Kd [7]: > 30 µM (inactive) | Kd [8]: > 30 µM (inactive)

Cn1cc(-c2cnc3ccc4ccc(CS(=O)(=O)NCc5ccccn5)cc4c(=O)c3c2)cn1 [MK-8033]
Kd [1]: > 30 µM (inactive) | Kd [10]: > 30 µM (inactive) | Kd [2]: > 30 µM (inactive) | Kd [3]: > 30 µM (inactive) | Kd (GTP-binding protein 4): > 30 µM (inactive) | Kd [4]: > 30 µM (inactive) | Kd [5]: > 30 µM (inactive) | Kd [6]: > 30 µM (inactive) | Kd [7]: > 30 µM (inactive) | Kd [8]: > 30 µM (inactive) | Kd [9]: > 30 µM (inactive)

O=C(NOCCO)c1cc(CN2OCCCC2=O)c(F)c(F)c1Nc1ccc(I)cc1F [RO-4987655]
Kd [10]: > 30 µM (inactive) | Kd [2]: > 30 µM (inactive) | Kd [3]: > 30 µM (inactive) | Kd (GTP-binding protein 4): > 30 µM (inactive) | Kd [4]: > 30 µM (inactive) | Kd [7]: > 30 µM (inactive)

CC(C)c1cc(CNc2nc(Nc3cc(C4CC4)[nH]n3)cc(N3CCN(C)CC3)n2)on1 [XL-228]
Kd [1]: > 30 µM (inactive) | Kd [10]: > 30 µM (inactive) | Kd [2]: 2.28 µM (active) | Kd [3]: > 30 µM (inactive) | Kd (GTP-binding protein 4): > 30 µM (inactive) | Kd [4]: > 30 µM (inactive) | Kd [5]: > 30 µM (inactive) | Kd [7]: > 30 µM (inactive) | Kd [8]: > 30 µM (inactive) | Kd [9]: 1.44 µM (active)
